Measured values from patent US20120196899A1, “METHODS AND PRODUCTS FOR TREATING INFLAMMATION” (Rock Creek Pharmaceuticals, Inc., priority 2010, published 2012).
Several values for one entry are separate records, joined by “and”; a condition that tells them apart may be missing. Equal values may be shown once.

Experiments:
[1] = test system: TNFα-induced NFκB activity; assay: NFκB luciferase assay (inhibition of TNFα-induced NFκB activity) in HEK293 reporter cells; format: cell-based, Human; settings: HEK293 reporter cells challenged with TNFα for three hours
Experimental: The smokeless tobacco used in these experiments was plain long-leaf Copenhagen tobacco purchased from a local vendor. Crude extract was extracted with methanol and water and clarified by centrifugation and filtration. The alkaloid extract was prepared from sodium hydroxide and methanol extraction, organic phase separation and purification. All treatment samples were prepared as a function of weight (μg/ml), and all samples were diluted in DMSO.
Human […] kidney cells (HEK293) transfected with an NFκB luciferase reporter were challenged with TNFα for three hours, then samples were applied to the challenged cells.

[2] = Physical signs after single i.v. dose (Example 3); format: in vivo, Sprague-Dawley rats; settings: anatabine 0.1, 0.75, 1.0 mg/kg single i.v., rats
Experimental: Four aliquots of each dose level formulation were collected and stored at −80° C. The test compound, corresponding dose level, number of animals, and sample collection times for Phase I of the study are shown in Table 3. The test compound, corresponding dose level, number of animals, and sample collection times for Phase II of the study are shown in Table 4. The physical signs of each animal were monitored following administration of the test compound.

[3] = Necropsy observations and organ weights, day 15; format: in vivo, Sprague-Dawley rats; settings: for Tissue Collection Weights: Brain / Tissue Collection Weights: Heart / Tissue Collection Weights: Kidneys / Tissue Collection Weights: Liver / Tissue Collection Weights: Lungs / Tissue Collection Weights: Ovaries/uterus / Tissue Collection Weights: Small intestine / Tissue Collection Weights: Spleen / Tissue Collection Weights: Thymus / Tissue Collection Weights: Prostate / Tissue Collection Weights: Testes: individual animals
Experimental: Body weight and food consumption was measured daily for 14 days. On day 15, urine was collected on all surviving animals. The animals were euthanized and bled via cardiac puncture, and blood was collected for analysis. Tissues were collected, weighed, evaluated for gross abnormalities, and stored in 10% neutral-buffered formalin.
On day 15, urine was collected on all surviving animals for urinalysis. The animals were euthanized and bled via cardiac puncture. Blood was collected for hematology, clinical chemistry, and coagulation analysis. Tissues were collected, weighed, and stored in 10% neutral-buffered formalin for possible future analysis.

[4] = Group B, 0.1 mg/kg, females, 0.1 mg/kg
[5] = Group B, 0.1 mg/kg, males, 0.1 mg/kg
[6] = Group C, 0.75 mg/kg, females, 0.75 mg/kg
[7] = Group C, 0.75 mg/kg, males, 0.75 mg/kg
[8] = anatabine 0.1 mg/kg single i.v., male rats
[9] = anatabine 0.75 mg/kg single i.v., male rats

## C1=CCC(c2cccnc2)NC1 (racemic) [Anatabine, 1,2,3,6-tetrahydro-[2,3′]bipyridinyl]
[1]
  TNFα-induced NFκB-mediated transcription of luciferase: can reduce this transcription to control levels
[2]
  physical signs: no obvious adverse signs were observed
[3]; [4]
  Tissue Collection Weights: Brain: 1.91 g and 1.89 g (2×) and 1.75 g and 1.86 g
  Tissue Collection Weights: Heart: 1.29 g and 1.12 g and 0.95 g and 1.05 g and 1.25 g
  Tissue Collection Weights: Kidneys: 2.46 g and 2.02 g (2×) and 2.14 g and 2.25 g
  Tissue Collection Weights: Liver: 11.54 g and 10.09 g and 9.94 g and 12.94 g and 9.67 g
  Tissue Collection Weights: Lungs: 1.42 g and 1.39 g and 1.15 g and 1.52 g and 1.59 g
  Tissue Collection Weights: Ovaries/uterus: 0.96 g and 1.79 g and 0.84 g and 1.42 g and 0.70 g
  Tissue Collection Weights: Small intestine: 0.87 g and 0.71 g and 0.55 g and 0.49 g and 0.63 g
  Tissue Collection Weights: Spleen: 0.79 g and 0.62 g and 0.51 g and 0.67 g and 0.65 g
  Tissue Collection Weights: Thymus: 0.68 g and 0.59 g and 0.49 g and 0.71 g and 0.73 g
[3]; [5]
  Tissue Collection Weights: Brain: 2.35 g and 2.16 g and 2.24 g and 2.11 g and 1.88 g
  Tissue Collection Weights: Heart: 1.71 g and 1.59 g and 1.97 g and 1.60 g and 1.85 g
  Tissue Collection Weights: Kidneys: 3.55 g and 3.33 g and 3.70 g and 3.27 g and 3.99 g
  Tissue Collection Weights: Liver: 17.92 g and 15.45 g and 16.98 g and 16.32 g and 17.38 g
  Tissue Collection Weights: Lungs: 2.31 g and 1.77 g and 2.08 g and 1.91 g and 1.83 g
  Tissue Collection Weights: Prostate: 0.72 g and 0.49 g and 0.73 g and 0.53 g and 0.48 g
  Tissue Collection Weights: Small intestine: 0.61 g and 0.96 g and 0.88 g and 0.50 g and 0.35 g
  Tissue Collection Weights: Spleen: 0.91 g and 0.66 g and 0.82 g and 0.93 g and 0.76 g
  Tissue Collection Weights: Testes: 3.69 g and 3.64 g and 3.14 g and 3.35 g and 3.29 g
  Tissue Collection Weights: Thymus: 0.74 g (2×) and 0.76 g and 0.71 g and 0.81 g
[3]; [6]
  Tissue Collection Weights: Brain: 1.99 g and 1.93 g and 1.73 g and 2.06 g and 1.81 g
  Tissue Collection Weights: Heart: 1.09 g and 1.21 g and 1.23 g and 1.03 g and 0.99 g
  Tissue Collection Weights: Kidneys: 2.08 g and 2.20 g and 2.68 g and 2.36 g
  Tissue Collection Weights: Liver: 10.71 g and 8.65 g and 11.37 g and 10.19 g
  Tissue Collection Weights: Lungs: 1.46 g and 1.39 g and 1.62 g and 1.30 g and 1.49 g
  Tissue Collection Weights: Ovaries/uterus: 0.81 g and 1.50 g and 0.72 g and 1.23 g and 3.65 g
  Tissue Collection Weights: Small intestine: 0.72 g and 0.37 g and 0.85 g and 0.47 g and 1.34 g
  Tissue Collection Weights: Spleen: 0.70 g and 0.65 g (2×) and 0.51 g and 0.49 g
  Tissue Collection Weights: Thymus: 0.56 g and 0.53 g and 0.63 g and 0.52 g and 0.54 g
[3]; [7]
  Tissue Collection Weights: Brain: 2.01 g and 2.19 g and 2.12 g and 2.00 g and 2.02 g
  Tissue Collection Weights: Heart: 1.52 g and 1.38 g and 1.56 g and 1.39 g and 1.29 g
  Tissue Collection Weights: Kidneys: 3.45 g and 2.77 g and 3.49 g and 3.16 g and 2.89 g
  Tissue Collection Weights: Liver: 14.92 g and 13.91 g and 14.70 g and 14.01 g and 14.94 g
  Tissue Collection Weights: Lungs: 1.86 g and 1.97 g and 1.72 g and 1.95 g and 1.58 g
  Tissue Collection Weights: Prostate: 0.49 g (2×) and 0.65 g and 0.46 g and 0.45 g
  Tissue Collection Weights: Small intestine: 0.54 g and 1.41 g and 0.56 g and 0.41 g and 0.47 g
  Tissue Collection Weights: Spleen: 0.71 g and 0.63 g and 0.79 g and 0.93 g and 0.64 g
  Tissue Collection Weights: Testes: 3.19 g and 3.84 g and 3.03 g and 3.28 g and 2.70 g
  Tissue Collection Weights: Thymus: 1.02 g and 0.52 g and 0.67 g and 0.69 g and 0.47 g
[3]; [8]
  Organ Weight Brain, Mean: 2.15 g
  Organ Weight Heart, Mean: 1.74 g
  Organ Weight Kidneys, Mean: 3.57 g
  Organ Weight Liver, Mean: 16.81 g
  Organ Weight Lungs, Mean: 1.98 g
  Organ Weight Prostate, Mean: 0.59 g
  Organ Weight Small intestine, Mean: 0.66 g
  Organ Weight Spleen, Mean: 0.82 g
  Organ Weight Testes, Mean: 3.42 g
  Organ Weight Thymus, Mean: 0.75 g
[3]; [9]
  Organ Weight Brain, Mean: 2.07 g
  Organ Weight Heart, Mean: 1.43 g
  Organ Weight Kidneys, Mean: 3.15 g
